Measurements published in US20260262643A1, “HERBICIDAL BENZOXAZINES” (FMC CORPORATION, priority 2022, published 2026).

How the values were obtained:
barnyardgrass [1] = test: Test C preemergence; format: in vivo, Echinochloa crusgalli
How it was run: (§1)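 Seeds sown in loam soil–sand blend received a directed preemergence soil spray of test chemical in non-phytotoxic solvent with surfactant; postemergence plants (2–10 cm, one- to two-leaf stage) were sprayed with the same formulation. Greenhouse-held 10 days, then visually rated for injury versus untreated controls, 0 (no effect) to 100 (complete control).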

blackgrass [2] = test: Test C preemergence; format: in vivo, Alopecurus myosuroides
How it was run: as §1

corn [3] = test: Test C preemergence; format: in vivo, Zea mays
How it was run: as §1

foxtail, giant [4] = test: Test C preemergence; format: in vivo, Setaria faberi
How it was run: as §1

kochia [5] = test: Test C preemergence; format: in vivo, Bassia scoparia
How it was run: as §1

oat, wild [6] = test: Test C preemergence; format: in vivo, Avena fatua
How it was run: as §1

pigweed, palmer [7] = test: Test C preemergence; format: in vivo, Amaranthus palmeri
How it was run: as §1

ragweed [8] = test: Test C preemergence; format: in vivo, Ambrosia artemisiifolia
How it was run: as §1

ryegrass, Italian [9] = test: Test C preemergence; format: in vivo, Lolium multiflorum
How it was run: as §1

soybean [10] = test: Test C preemergence; format: in vivo, Glycine max
How it was run: as §1

wheat [11] = test: Test C preemergence; format: in vivo, Triticum aestivum
How it was run: as §1

barnyardgrass [12] = test: Test C postemergence; format: in vivo, Echinochloa crusgalli; details: 10 days, 0 to 100 scale (0 no effect, 100 complete control)
How it was run: as §1

blackgrass [13] = test: Test C postemergence; format: in vivo, Alopecurus myosuroides; details: 10 days, 0 to 100 scale (0 no effect, 100 complete control)
How it was run: as §1

corn [14] = test: Test C postemergence; format: in vivo, Zea mays; details: 10 days, 0 to 100 scale (0 no effect, 100 complete control)
How it was run: as §1

foxtail, giant [15] = test: Test C postemergence; format: in vivo, Setaria faberi; details: 10 days, 0 to 100 scale (0 no effect, 100 complete control)
How it was run: as §1

kochia [16] = test: Test C postemergence; format: in vivo, Bassia scoparia; details: 10 days, 0 to 100 scale (0 no effect, 100 complete control)
How it was run: as §1

oat, wild [17] = test: Test C postemergence; format: in vivo, Avena fatua; details: 10 days, 0 to 100 scale (0 no effect, 100 complete control)
How it was run: as §1

pigweed, palmer [18] = test: Test C postemergence; format: in vivo, Amaranthus palmeri; details: 10 days, 0 to 100 scale (0 no effect, 100 complete control)
How it was run: as §1

ragweed [19] = test: Test C postemergence; format: in vivo, Ambrosia artemisiifolia; details: 10 days, 0 to 100 scale (0 no effect, 100 complete control)
How it was run: as §1

ryegrass, Italian [20] = test: Test C postemergence; format: in vivo, Lolium multiflorum; details: 10 days, 0 to 100 scale (0 no effect, 100 complete control)
How it was run: as §1

soybean [21] = test: Test C postemergence; format: in vivo, Glycine max; details: 10 days, 0 to 100 scale (0 no effect, 100 complete control)
How it was run: as §1

wheat [22] = test: Test C postemergence; format: in vivo, Triticum aestivum; details: 10 days, 0 to 100 scale (0 no effect, 100 complete control)
How it was run: as §1

galium = test: Test C postemergence; format: in vivo, Galium aparine; details: 10 days, 0 to 100 scale (0 no effect, 100 complete control)
How it was run: as §1

horseweed = test: Test C postemergence; format: in vivo, Erigeron canadensis; details: 10 days, 0 to 100 scale (0 no effect, 100 complete control)
How it was run: as §1

barnyardgrass [23] = test: Test D flooded paddy test; format: in vivo, Echinochloa crus-galli; details: 250 g ai/ha, applied to paddy water, visual rating after 13 to 14 days, scale 0 to 100 (0 no effect, 100 complete control)
How it was run: (§2)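 Visual ratings from 0, meaning no effect, to 100, meaning complete control, were assigned against untreated controls 13 to 14 days after compounds were added to the floodwater of pots kept 3 cm deep, with plants at the 2-leaf stage.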

ducksalad = test: Test D flooded paddy test; format: in vivo, Heteranthera limosa; details: 250 g ai/ha, applied to paddy water, visual rating after 13 to 14 days, scale 0 to 100 (0 no effect, 100 complete control)
How it was run: as §2

rice = test: Test D flooded paddy test; format: in vivo, Oryza sativa; details: 250 g ai/ha, applied to paddy water, visual rating after 13 to 14 days, scale 0 to 100 (0 no effect, 100 complete control)
How it was run: as §2

sedge, umbrella = test: Test D flooded paddy test; format: in vivo, Cyperus difformis; details: 250 g ai/ha, applied to paddy water, visual rating after 13 to 14 days, scale 0 to 100 (0 no effect, 100 complete control)
How it was run: as §2

[24] = 500 g ai/ha, preemergence, 0 to 100 scale (0 no effect, 100 complete control)
[25] = Preemergence, 125 g ai/ha, 0 to 100 scale, 0 no effect, 100 complete control

SMILES: CCc1ncn(-c2cccc(C(=O)N3CC(C(F)(F)F)Oc4c(Cl)cccc43)c2)n1 (stereo not shown) [Compound 345]
- Barnyardgrass plant response rating (barnyardgrass [1]; [24]): 100
- Plant response rating, Barnyardgrass (barnyardgrass [1]; [25]): 60
- Blackgrass plant response rating (blackgrass [2]; [24]): 90
- Plant response rating, Blackgrass (blackgrass [2]; [25]): 80
- Corn plant response rating (corn [3]; [24]): 30
- Plant response rating, Corn (corn [3]; [25]): 10
- Foxtail, Giant plant response rating (foxtail, giant [4]; [24]): 100
- Plant response rating, Foxtail, Giant (foxtail, giant [4]; [25]): 90
- Kochia plant response rating (kochia [5]; [24]): 100
- Plant response rating, Kochia (kochia [5]; [25]): 50
- Oat, Wild plant response rating (oat, wild [6]; [24]): 80
- Plant response rating, Oat, Wild (oat, wild [6]; [25]): 10
- Pigweed, Palmer plant response rating (pigweed, palmer [7]; [24]): 100
- Plant response rating, Pigweed, Palmer (pigweed, palmer [7]; [25]): 100
- Ragweed plant response rating (ragweed [8]; [24]): 0
- Plant response rating, Ragweed (ragweed [8]; [25]): 0
- Ryegrass, Italian plant response rating (ryegrass, Italian [9]; [24]): 90
- Plant response rating, Ryegrass, Italian (ryegrass, Italian [9]; [25]): 80
- Soybean plant response rating (soybean [10]; [24]): 100
- Plant response rating, Soybean (soybean [10]; [25]): 30
- Wheat plant response rating (wheat [11]; [24]): 10
- Plant response rating, Wheat (wheat [11]; [25]): 0
- Plant response rating, Barnyardgrass (barnyardgrass [12]; 500 g ai/ha, postemergence): 60
- Plant response rating, Barnyardgrass (barnyardgrass [12]; Postemergence, 125 g ai/ha): 30
- Plant response rating, Blackgrass (blackgrass [13]; 500 g ai/ha, postemergence): 90
- Plant response rating, Blackgrass (blackgrass [13]; Postemergence, 125 g ai/ha): 50
- Plant response rating, Corn (corn [14]; 500 g ai/ha, postemergence): 80
- Plant response rating, Corn (corn [14]; Postemergence, 125 g ai/ha): 30
- Plant response rating, Foxtail, Giant (foxtail, giant [15]; 500 g ai/ha, postemergence): 90
- Plant response rating, Foxtail, Giant (foxtail, giant [15]; Postemergence, 125 g ai/ha): 60
- Plant response rating, Kochia (kochia [16]; 500 g ai/ha, postemergence): 90
- Plant response rating, Kochia (kochia [16]; Postemergence, 125 g ai/ha): 80
- Plant response rating, Oat, Wild (oat, wild [17]; 500 g ai/ha, postemergence): 30
- Plant response rating, Oat, Wild (oat, wild [17]; Postemergence, 125 g ai/ha): 20
- Plant response rating, Pigweed, Palmer (pigweed, palmer [18]; 500 g ai/ha, postemergence): 80
- Plant response rating, Pigweed, Palmer (pigweed, palmer [18]; Postemergence, 125 g ai/ha): 60
- Plant response rating, Ragweed (ragweed [19]; 500 g ai/ha, postemergence): 60
- Plant response rating, Ragweed (ragweed [19]; Postemergence, 125 g ai/ha): 40
- Plant response rating, Ryegrass, Italian (ryegrass, Italian [20]; 500 g ai/ha, postemergence): 80
- Plant response rating, Ryegrass, Italian (ryegrass, Italian [20]; Postemergence, 125 g ai/ha): 60
- Plant response rating, Soybean (soybean [21]; 500 g ai/ha, postemergence): 100
- Plant response rating, Soybean (soybean [21]; Postemergence, 125 g ai/ha): 100
- Plant response rating, Wheat (wheat [22]; 500 g ai/ha, postemergence): 30
- Plant response rating, Wheat (wheat [22]; Postemergence, 125 g ai/ha): 20
- Plant response rating, Galium (galium; 500 g ai/ha, postemergence): 100
- Plant response rating, Galium (galium; Postemergence, 125 g ai/ha): 100
- Plant response rating, Horseweed (horseweed; 500 g ai/ha, postemergence): 30
- Plant response rating, Horseweed (horseweed; Postemergence, 125 g ai/ha): 0
- Plant response rating, Barnyardgrass (Flood) (barnyardgrass [23]): 40
- Plant response rating, Ducksalad (Flood) (ducksalad): 65
- Plant response rating, Rice (Flood) (rice): 10
- Plant response rating, Sedge, Umbrella (Flood) (sedge, umbrella): 60
